Experimental findings from US8058242B2, “Chimeric proteins with natriuretic activity” (The University of Queensland, priority 2004, dated 2011) are described below.

Where “and” joins values, the source holds several entries; their conditions need not be identical. Equal entries are not always repeated. Positions of bridges follow the written chain, without caps; N, C: chain ends. Residues, ends and D or L forms follow the SMILES beside them.

The test system of assay [1] is denuded aortic rings, GC A receptor. As to the kind of experiment: Relaxation of noradrenaline constricted endothelium-denuded aortic rings (Example 11). Further details: species or system rat. To be noted: GC-A mediated. The procedure:
Male Sprague Dawley rats were killed and the descending thoracic aorta rapidly removed and flushed with physiological solution. After being cleared of adhering fat and connective tissue, 5 mm rings were mounted under 10 g resting tension, between two stainless steel hooks, in organ baths (37° C.) containing carbogenated (95% O2 and 5% CO2) physiological salt solution of the following composition (mM): NaCl, 118.4; NaHCO3, 25; glucose, 11; KCl, 4.7; MgSO4, 1.2; KH2PO4, 1.2 and CaCl2, 2.5. The lower hook was attached to a tissue holder and the upper hook to a force displacement transducer (Grass FTO3). Where indicated endothelial cells were removed by gentle rubbing of the intimal surface with a wire. To confirm the presence or absence of endothelial cells, tissues were precontracted with a sub-maximal concentration of phenylephrine (0.3 μM) and the response to acetylcholine (ACh, 10 μM) observed. Ach-induced relaxation greater than 80% of maximum indicated the presence of endothelium; whereas Ach-induced relaxation less than 10% indicated the absence of endothelium. Ring preparations under resting tension were conditioned by two contraction/relaxation cycles with 40 mM KCl, contracted by a third application of 40 mM KCl and then relaxed with different doses of the venom peptides. Responses were expressed as a percentage relaxation of the precontraction by KCl.
In addition to the peptides tested in example 3, a series of 13 analogs corresponding to the 2a, 2b and 2c grouping of peptides were examined for their ability to dilate noradrenaline constricted aortic rings. The degree of constriction was expressed as a percentage of the KCl induced constriction. The aortic rings were prepared in a manner similar to the method described in example 3. […]. In each case there were at least 3 separate aortic rings tested per peptide and all were denuded of endothelium to ensure responses were confined to the GC A receptor.

Assay [2] has as its target T1, Natriuretic Peptide Receptor-A (NPR-A) signaling in MDCK cells (Canis lupus familiaris, UniProt A0A8I3MHU3).
T1 sequence (A0A8I3MHU3 32-1060): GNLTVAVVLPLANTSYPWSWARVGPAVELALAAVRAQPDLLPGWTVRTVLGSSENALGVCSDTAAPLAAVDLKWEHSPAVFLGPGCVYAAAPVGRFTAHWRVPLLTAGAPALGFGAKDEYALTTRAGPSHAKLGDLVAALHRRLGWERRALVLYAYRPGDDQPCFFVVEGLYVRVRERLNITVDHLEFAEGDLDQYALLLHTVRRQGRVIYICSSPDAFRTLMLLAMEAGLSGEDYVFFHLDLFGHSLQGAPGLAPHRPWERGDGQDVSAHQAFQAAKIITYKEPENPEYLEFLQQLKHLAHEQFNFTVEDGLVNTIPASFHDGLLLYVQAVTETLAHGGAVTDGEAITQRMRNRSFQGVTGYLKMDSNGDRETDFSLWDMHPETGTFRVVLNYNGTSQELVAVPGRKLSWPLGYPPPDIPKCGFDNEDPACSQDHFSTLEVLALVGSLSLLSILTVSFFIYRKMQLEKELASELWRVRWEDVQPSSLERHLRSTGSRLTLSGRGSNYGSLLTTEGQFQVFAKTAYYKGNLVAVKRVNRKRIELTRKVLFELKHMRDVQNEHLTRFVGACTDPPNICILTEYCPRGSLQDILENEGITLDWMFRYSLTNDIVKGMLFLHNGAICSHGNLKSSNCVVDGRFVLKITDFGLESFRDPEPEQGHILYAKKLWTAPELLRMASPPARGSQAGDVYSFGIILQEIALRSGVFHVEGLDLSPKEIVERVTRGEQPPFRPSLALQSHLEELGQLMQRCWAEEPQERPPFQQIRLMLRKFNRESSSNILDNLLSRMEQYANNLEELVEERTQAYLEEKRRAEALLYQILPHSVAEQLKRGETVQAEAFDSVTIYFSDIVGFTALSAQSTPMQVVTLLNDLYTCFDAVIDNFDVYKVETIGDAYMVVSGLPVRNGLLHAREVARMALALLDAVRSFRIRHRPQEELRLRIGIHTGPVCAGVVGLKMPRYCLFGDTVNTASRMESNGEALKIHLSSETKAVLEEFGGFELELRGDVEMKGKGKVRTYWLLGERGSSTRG
The class given is cell-based, canine. The following applies: stimulation of cGMP accumulation in MDCK cells; for EC50: read-out: EC50 (M) ± Standard Error.

In assay [3] the test system is conscious rabbits. As to the kind of experiment: Blood pressure and heart rate in conscious rabbits, intravenous infusion dose-response (Example 8). The following applies: for recovery of MAP, in words: 2 hours after infusion; for MAP at final dose / Recovery (MAP) / Recovery Delta SED (MAP) / Treatment Effect, change of mean blood pressure during the infusion: Table 10B; for Recovery (MAP) / Recovery Delta SED (MAP): after a 2 hour recovery period; for Treatment Effect, change of mean blood pressure during the infusion: final dose, groups 2B and 2C.

`CC[C@H](C)[C@@H]1NC(=O)[C@H](CCCNC(=N)N)NC(=O)[C@H](CC(=O)O)NC(=O)[C@H](CC(C)C)NC(=O)[C@@H]2CCCN2C(=O)[C@H](Cc2ccccc2)NC(=O)CNC(=O)[C@H](Cc2ccccc2)NC(=O)[C@@H](NC(=O)[C@@H]2CCCN2C(=O)[C@H](CC(=O)O)NC(=O)[C@H](Cc2ccc(O)cc2)NC(=O)[C@H](CCCCN)NC(=O)[C@@H](NC(=O)[C@@H](N)CCC(=O)O)C(C)C)CSSC[C@@H](C(=O)N[C@@H](CC(N)=O)C(=O)N[C@@H](CCCNC(=N)N)C(=O)N[C@H](C(=O)N[C@@H](CCSC)C(=O)N[C@@H](CCC(N)=O)C(=O)N[C@@H](CC(N)=O)C(=O)N2CCC[C@H]2C(=O)N2CCC[C@H]2C(=O)N[C@@H](CCCCN)C(=O)N[C@@H](CCCCN)C(=O)N[C@@H](Cc2ccccc2)C(=O)N[C@@H](CO)C(=O)NCC(=O)N[C@@H](CCC(=O)O)C(=O)O)[C@@H](C)CC)NC(=O)CNC(=O)[C@H](CC(C)C)NC(=O)CNC(=O)[C@H](CO)NC(=O)[C@H](C(C)C)NC(=O)[C@H](CO)NC(=O)CNC1=O` [TNPc DTT] (H-EVKYDPCFGFPLDRIGSVSGLGCNRIMQNPPKKFSGE-OH; disulfide 7-23; N-terminus assumed): the “Mean relaxation SEM of denuded aortic rings expressed as % of KCl response” value in assay [1] is listed as 58.9 ± 6.7%. In assay [2], the “−Log10 EC50 (pEC50) ± Standard Error” value was 7.723 ± 0.1425 and the EC50 came out at 2.12e-08 M. Further, in assay [3], the “recovery of MAP, in words” value is reported as “partially recovered”; the “MAP at final dose” value is 58.6 mm Hg; the “Recovery (MAP)” value came out at 70.3 mm Hg; the “Recovery Delta SED (MAP)” value was determined as 11.7 ± 5.2 mm Hg. For the same compound, the “Treatment Effect, change of mean blood pressure during the infusion” value in assay [3] is −12.4 mm Hg.
As for `CC[C@H](C)[C@H](NC(=O)[C@H](CCCCN)NC(=O)[C@H](CO)NC(=O)[C@H](CC(=O)O)NC(=O)[C@@H](N)CO)C(=O)NCC(=O)N[C@@H](CCCCN)C(=O)NCC(=O)N[C@H]1CSSC[C@@H](C(=O)N[C@@H](CC(N)=O)C(=O)N[C@@H](CCCNC(=N)N)C(=O)N[C@H](C(=O)N[C@@H](CCSC)C(=O)N[C@@H](CCC(N)=O)C(=O)N[C@@H](CC(N)=O)C(=O)N2CCC[C@H]2C(=O)N2CCC[C@H]2C(=O)N[C@@H](CCCCN)C(=O)N[C@@H](CCCCN)C(=O)N[C@@H](Cc2ccccc2)C(=O)N[C@@H](CO)C(=O)NCC(=O)N[C@@H](CCC(=O)O)C(=O)O)[C@@H](C)CC)NC(=O)CNC(=O)[C@H](CC(C)C)NC(=O)CNC(=O)[C@H](CO)NC(=O)[C@H](C(C)C)NC(=O)[C@H](CO)NC(=O)CNC(=O)[C@H]([C@@H](C)CC)NC(=O)[C@H](CCCNC(=N)N)NC(=O)[C@H](CC(=O)O)NC(=O)[C@H](CC(C)C)NC(=O)[C@@H]2CCCN2C(=O)[C@H](Cc2ccccc2)NC(=O)CNC(=O)[C@H](Cc2ccccc2)NC1=O` [TNPc K7] (H-SDSKIGKGCFGFPLDRIGSVSGLGCNRIMQNPPKKFSGE-OH; disulfide 9-25; N-terminus assumed), the “Mean relaxation SEM of denuded aortic rings expressed as % of KCl response” value in assay [1] is 50% and 46.1 ± 13.5%. Moreover, in assay [2], the “−Log10 EC50 (pEC50) ± Standard Error” value was 7.443 ± 0.2700 and the concentration for a half-maximal effect (EC50) worked out at 5.28e-08 M. In assay [3], the “recovery of MAP, in words” value is “did not recover after 2 hours”; the “MAP at final dose” value stood at 59.0 mm Hg; the “Recovery (MAP)” value was determined as 62.4 mm Hg; the “Recovery Delta SED (MAP)” value was 3.4 ± 1.9 mm Hg. Moreover, the “Treatment Effect, change of mean blood pressure during the infusion” value in assay [3] was −14.1 mm Hg.
